Test system: SEM cells
Assay: cell viability relative to DMSO control; higher = less cytotoxic
Conditions: 48 h
Method in brief: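 Viability is expressed as a percentage of DMSO wells within each plate, and cell-free wells serve as background. Seeding densities in the 1536-well plates (5 μl) were 500 cells/well for NOMO1 or SEM leukemia cells and 1000 cells/well for P12-Ichikawa. Each line was adapted for at least four passages in each medium. Library compounds in DMSO were pin-dosed at 47 μM to 0.79 nM (11 points, threefold), and CellTiter-Glo One luminescence was read after 48 h at 37°C.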

[1] = HPLM + 10% dialyzed FBS, 0.000781 µM
[2] = HPLM + 10% dialyzed FBS, 0.00234 µM
[3] = HPLM + 10% dialyzed FBS, 0.00702 µM
[4] = HPLM + 10% dialyzed FBS, 0.0211 µM
[5] = HPLM + 10% dialyzed FBS, 0.0632 µM
[6] = HPLM + 10% dialyzed FBS, 0.19 µM
[7] = HPLM + 10% dialyzed FBS, 0.569 µM
[8] = HPLM + 10% dialyzed FBS, 1.71 µM
[9] = HPLM + 10% dialyzed FBS, 5.12 µM
[10] = HPLM + 10% dialyzed FBS, 15.4 µM
[11] = HPLM + 10% dialyzed FBS, 46.1 µM
[12] = RPMI 5 mM glucose + 10% FBS, 0.000781 µM
[13] = RPMI 5 mM glucose + 10% FBS, 0.00234 µM
[14] = RPMI 5 mM glucose + 10% FBS, 0.00702 µM
[15] = RPMI 5 mM glucose + 10% FBS, 0.0211 µM
[16] = RPMI 5 mM glucose + 10% FBS, 0.0632 µM
[17] = RPMI 5 mM glucose + 10% FBS, 0.19 µM
[18] = RPMI 5 mM glucose + 10% FBS, 0.569 µM
[19] = RPMI 5 mM glucose + 10% FBS, 1.71 µM
[20] = RPMI 5 mM glucose + 10% FBS, 5.12 µM
[21] = RPMI 5 mM glucose + 10% FBS, 15.4 µM
[22] = RPMI 5 mM glucose + 10% FBS, 46.1 µM
[23] = RPMI 5 mM glucose + 10% dialyzed FBS, 0.000781 µM
[24] = RPMI 5 mM glucose + 10% dialyzed FBS, 0.00234 µM
[25] = RPMI 5 mM glucose + 10% dialyzed FBS, 0.00702 µM
[26] = RPMI 5 mM glucose + 10% dialyzed FBS, 0.0211 µM
[27] = RPMI 5 mM glucose + 10% dialyzed FBS, 0.0632 µM
[28] = RPMI 5 mM glucose + 10% dialyzed FBS, 0.19 µM
[29] = RPMI 5 mM glucose + 10% dialyzed FBS, 0.569 µM
[30] = RPMI 5 mM glucose + 10% dialyzed FBS, 1.71 µM
[31] = RPMI 5 mM glucose + 10% dialyzed FBS, 5.12 µM
[32] = RPMI 5 mM glucose + 10% dialyzed FBS, 15.4 µM
[33] = RPMI 5 mM glucose + 10% dialyzed FBS, 46.1 µM

Compound	cell viability [1] [%]	cell viability [2] [%]	cell viability [3] [%]	cell viability [4] [%]	cell viability [5] [%]	cell viability [6] [%]	cell viability [7] [%]	cell viability [8] [%]	cell viability [9] [%]	cell viability [10] [%]	cell viability [11] [%]	cell viability [12] [%]	cell viability [13] [%]	cell viability [14] [%]	cell viability [15] [%]	cell viability [16] [%]	cell viability [17] [%]	cell viability [18] [%]	cell viability [19] [%]	cell viability [20] [%]	cell viability [21] [%]	cell viability [22] [%]	cell viability [23] [%]	cell viability [24] [%]	cell viability [25] [%]	cell viability [26] [%]	cell viability [27] [%]	cell viability [28] [%]	cell viability [29] [%]	cell viability [30] [%]	cell viability [31] [%]	cell viability [32] [%]	cell viability [33] [%]
COc1cc([C@@H]2c3cc4c(cc3[C@@H](O[C@@H]3O[C@@H]5CO[C@@H](c6cccs6)O[C@H]5[C@H](O)[C@H]3O)[C@H]3COC(=O)[C@H]23)OCO4)cc(OC)c1O	94.9	85	89.8	95.1	83.1	85	90.8	16.4	77.9	15.3	4.57	96.7	120	110	103	101	84.7	78.7	14.4	80.1	12.6	5.23	86.7	88.9	79	85.1	79.6	68.6	66.8	9.66	63.4	11	3.6
CO[C@@H]1C(N(C)C(=O)c2ccccc2)C[C@H]2O[C@]1(C)n1c3ccccc3c3c4c(c5c6ccccc6n2c5c31)C(=O)NC4=O (stereo partly drawn)	70.6	69.4	95.4	89.2	75.8	92.6	90	80.5	40.3	14.7	7.83	68.2	66.2	92.1	91.2	86.5	86.1	75.1	47.7	19.4	10.7	7.46	81.5	84.1	91.7	79.6	82.7	102	79.7	74.4	35.7	13.2	8.6
CO[C@H]1C[C@@H]2CC[C@@H](C)[C@@](O)(O2)C(=O)C(=O)N2CCCC[C@H]2C(=O)O[C@H]([C@H](C)C[C@@H]2CC[C@@H](OCCO)[C@H](OC)C2)CC(=O)[C@H](C)/C=C(/C)[C@@H](O)[C@@H](OC)C(=O)[C@H](C)C[C@H](C)\C=C/C=C\C=C/1C	47.5	91.9	74.6	65.2	77.2	58.6	42.7	42.1	20.8	10.7	14.2	51.7	86.2	71.1	71.7	75	64.9	41.5	28.4	17.2	12.9	12.6	50.8	84	73.8	65.4	68.3	63.4	49.5	37	13.7	10.4	11.8
CCNc1cc(NC2CCC(O)CC2)nc(Nc2ccc3c(ccn3Cc3ccccc3)c2)n1 (stereo not drawn)	102	119	129	127	118	137	124	147	123	117	105	–	–	–	–	–	–	–	–	–	–	–	–	–	–	–	–	–	–	–	–	–	–
Nc1nc(OCc2ccccc2)c2nc[nH]c2n1	99.9	107	114	112	112	124	114	115	115	105	127	82	101	84.5	92.3	103	97.5	89.4	78.4	93.8	76.7	88.9	90.2	102	109	103	104	112	98.6	86.6	94.5	76.1	103
CCN(CC)CCN1C(=O)\C(=N/C2=CC=CC=C12)CC3=CC=C(OC)C=C3	68.2	67.5	87.2	76.3	85.3	80.3	99.1	83.6	75.2	86.8	85.4	82.7	93.1	97.8	78.5	93.8	105	101	106	91.9	92	107	78.2	89.4	87.1	89	94.3	97.1	112	96.6	93.3	88	102
NC(=O)Nc1cc(-c2ccc(CN3CCOCC3)cc2)sc1C(N)=O	103	113	106	108	103	32.9	33.3	22.2	12.9	11.5	8.44	118	120	133	116	111	20.2	19.9	17.1	10.8	6.3	6.6	104	110	109	108	91.2	22.9	21.6	14.5	7.42	7.32	5.7
CCCCCCCCCCCCCCCCCCOP(=O)([O-])OC1CC[N+](C)(C)CC1	82.4	112	97.5	88.7	103	101	109	106	87.4	82.4	73.8	91.9	104	100	95.3	120	108	104	102	98.2	98.4	73.7	101	96.9	98	84.3	99.9	94.9	101	99.9	87.6	82	60.2
CCN1C[C@]2(OC(=O)c3ccccc3NC(C)=O)CC[C@H](OC)[C@@]34[C@@H]2C[C@@H]([C@@H]13)[C@@]1(O)C[C@H](OC)[C@H]2C[C@@H]4[C@]1(O)[C@H]2OC	85	100	99	105	99.6	104	98.2	106	92.5	85.2	88.6	79.5	96.6	101	102	106	99.8	103	90.9	87.9	65.6	71	88.2	94.6	97.5	101	81.9	88.4	99.4	93	80.6	78.4	86.5
COc1ccc(Nc2cc(-c3cnc(N)nc3)nc(N3CCOCC3)n2)cn1	93.8	96.7	90.6	96.8	99.4	102	92.6	84.7	47.3	59.8	44.6	104	104	110	115	120	99.5	108	99	52.8	65.6	57	98.6	89.5	91	105	97	80.9	89.6	89.7	43.9	57.4	44.5
COC[C@H]1OC(=O)C2=COC3=C2[C@@]1(C)\C4=C(\[C@@H]5CC[C@H](O)[C@@]5(C)C[C@H]4OC(C)=O)C3=O	95.1	117	48.9	114	113	113	117	111	102	98.6	54.7	60.9	67.4	15.9	71.7	77.7	84.9	67.9	77.3	55.9	53.2	33.7	101	99	45.8	98.4	115	108	104	105	84.7	68.2	30.8
Cc1ccc(-c2ncn(-c3ccc(Nc4nccc(-c5cccc(N6CCOCC6)c5)n4)cc3)n2)cn1	75.3	93	103	94.5	70.9	65.3	4.95	3.93	3.48	3.55	6.89	90.3	98.9	101	104	75.1	32.3	5.46	4.61	3.18	3.66	5.27	81.6	95.5	90.7	94.4	66.9	48	5.8	4.65	4.48	3.85	5.94
CN(C)C[C@@H]1CC[N]2C=C(C3=C2C=CC=C3)C/4=C(/C(=O)NC4=O)C5=C[N](CCO1)C6=C5C=CC=C6	87.6	56.8	105	110	97.5	99.6	91.2	81.4	79.2	56.8	2.57	118	59.2	97.3	97	99.2	119	105	89.1	77.7	49.6	2.71	97.7	47.9	102	105	107	105	93.7	87.2	73.2	51.8	2.49
CC(C)NCC(O)c1ccc(NS(C)(=O)=O)cc1 (stereo not drawn)	110	110	93	106	111	124	108	105	111	116	108	109	104	117	106	109	101	96.2	87.1	92.7	97.2	107	107	99.1	97.4	104	111	105	111	106	106	109	105
NCC(=O)Nc1ccc(-n2nc(C(F)(F)F)cc2-c2ccc3c(ccc4ccccc43)c2)cc1	109	136	117	121	120	112	129	121	113	99.1	95	87.7	100	112	102	116	114	101	107	98.3	84.8	72.6	119	138	119	124	120	114	128	132	100	51.4	45.1
